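GI50 marks 50% less growth. The concentration for full growth arrest is given as TGI.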
How the values were obtained:
Assay in all cases: inhibition of tumour cell growth, NCI panel, 384-well format
SN12C renal = tested on: SN12C renal
UO-31 renal = tested on: UO-31 renal
OVCAR-4 ovarian = tested on: OVCAR-4 ovarian
T-47D breast = tested on: T-47D breast
RXF 393 renal = tested on: RXF 393 renal
EKVX NSCLC = tested on: EKVX NSCLC
HOP-62 NSCLC = tested on: HOP-62 NSCLC
SF-268 CNS = tested on: SF-268 CNS
MOLT-4 leukemia = tested on: MOLT-4 leukemia
A549 NSCLC = tested on: A549 NSCLC
HCC-2998 colon = tested on: HCC-2998 colon
BT-549 breast = tested on: BT-549 breast
DU-145 prostate = tested on: DU-145 prostate
K-562 leukemia = tested on: K-562 leukemia
SK-MEL-2 melanoma = tested on: SK-MEL-2 melanoma
HCT-15 colon = tested on: HCT-15 colon
UACC-62 melanoma = tested on: UACC-62 melanoma
PC-3 prostate = tested on: PC-3 prostate
CAKI-1 renal = tested on: CAKI-1 renal
ACHN renal = tested on: ACHN renal
NCI/ADR-RES ovarian = tested on: NCI/ADR-RES ovarian
SF-295 CNS = tested on: SF-295 CNS
NCI-H226 lung = tested on: NCI-H226 lung
M14 melanoma = tested on: M14 melanoma
CCRF-CEM leukemia = tested on: CCRF-CEM leukemia
LOX IMVI melanoma = tested on: LOX IMVI melanoma
HL-60(TB) leukemia = tested on: HL-60(TB) leukemia
HOP-92 NSCLC = tested on: HOP-92 NSCLC
NCI-H522 lung = tested on: NCI-H522 lung
NCI-H23 lung = tested on: NCI-H23 lung
NCI-H322M lung = tested on: NCI-H322M lung
NCI-H460 NSCLC = tested on: NCI-H460 NSCLC
RPMI-8226 leukemia = tested on: RPMI-8226 leukemia
MALME-3M melanoma = tested on: MALME-3M melanoma
786-0 renal = tested on: 786-0 renal
COLO 205 colon = tested on: COLO 205 colon
SR leukemia = tested on: SR leukemia
MCF7 breast = tested on: MCF7 breast
TK-10 renal = tested on: TK-10 renal
SK-MEL-5 melanoma = tested on: SK-MEL-5 melanoma
SW-620 colon = tested on: SW-620 colon
OVCAR-8 ovarian = tested on: OVCAR-8 ovarian
MDA-MB-435 melanoma = tested on: MDA-MB-435 melanoma
MDA-MB-231 breast = tested on: MDA-MB-231 breast
OVCAR-3 ovarian = tested on: OVCAR-3 ovarian
HCT-116 colon = tested on: HCT-116 colon
IGROV1 ovarian = tested on: IGROV1 ovarian

`Cc1ccc(S(=O)(=O)Cc2nc(-c3ccc(C(=O)NCc4cccnc4)cc3)oc2C)cc1` was tested, and the GI50 (SN12C renal) was under 10 nM, the TGI (SN12C renal) was under 10 nM and the GI50 (UO-31 renal) was under 10 nM. For the same compound, the TGI (UO-31 renal) was under 10 nM, the GI50 (OVCAR-4 ovarian) was 19.3 nM and the TGI (OVCAR-4 ovarian) was 39.6 nM. The GI50 (T-47D breast) was under 10 nM, the TGI (T-47D breast) was under 10 nM and the GI50 (RXF 393 renal) was 16.9 nM. The TGI (RXF 393 renal) was 33.4 nM, the GI50 (EKVX NSCLC) was under 10 nM and the TGI (EKVX NSCLC) was 25.1 nM. For the same compound, the GI50 (HOP-62 NSCLC) was under 10 nM, the TGI (HOP-62 NSCLC) was 11.9 nM and the GI50 (SF-268 CNS) was under 10 nM. It also gave a TGI (SF-268 CNS) of 12.9 nM, a GI50 (MOLT-4 leukemia) of under 10 nM and a TGI (MOLT-4 leukemia) of under 10 nM. For the same compound, the GI50 (A549 NSCLC) was 19.4 nM, the TGI (A549 NSCLC) was 41.9 nM and the GI50 (HCC-2998 colon) was under 10 nM. It also gave a TGI (HCC-2998 colon) of under 10 nM, a GI50 (BT-549 breast) of 17.9 nM and a TGI (BT-549 breast) of 32.7 nM. It also gave a GI50 (DU-145 prostate) of 15.9 nM, a TGI (DU-145 prostate) of 30.8 nM and a GI50 (K-562 leukemia) of under 10 nM. It also gave a TGI (K-562 leukemia) of under 10 nM, a GI50 (SK-MEL-2 melanoma) of under 10 nM and a TGI (SK-MEL-2 melanoma) of under 10 nM. For the same compound, the GI50 (HCT-15 colon) was under 10 nM, the TGI (HCT-15 colon) was 16.3 nM and the GI50 (UACC-62 melanoma) was 16.5 nM. The TGI (UACC-62 melanoma) was 34.5 nM, the GI50 (PC-3 prostate) was under 10 nM and the TGI (PC-3 prostate) was under 10 nM. It also gave a GI50 (CAKI-1 renal) of under 10 nM, a TGI (CAKI-1 renal) of 15.5 nM and a GI50 (ACHN renal) of 12.5 nM. It also gave a TGI (ACHN renal) of 28.7 nM, a GI50 (NCI/ADR-RES ovarian) of 15.2 nM and a TGI (NCI/ADR-RES ovarian) of 29.4 nM. For the same compound, the GI50 (SF-295 CNS) was 14.1 nM, the TGI (SF-295 CNS) was 28 nM and the GI50 (NCI-H226 lung) was 119 nM. It also gave a TGI (NCI-H226 lung) of 602 nM, a GI50 (M14 melanoma) of under 10 nM and a TGI (M14 melanoma) of 16.9 nM. The GI50 (CCRF-CEM leukemia) was under 10 nM, the TGI (CCRF-CEM leukemia) was under 10 nM and the GI50 (LOX IMVI melanoma) was 17.1 nM. The TGI (LOX IMVI melanoma) was 78.7 nM, the GI50 (HL-60(TB) leukemia) was under 10 nM and the TGI (HL-60(TB) leukemia) was under 10 nM. It also gave a GI50 (HOP-92 NSCLC) of 22 nM, a TGI (HOP-92 NSCLC) of 52.6 nM and a GI50 (NCI-H522 lung) of under 10 nM. For the same compound, the TGI (NCI-H522 lung) was under 10 nM, the GI50 (NCI-H23 lung) was under 10 nM and the TGI (NCI-H23 lung) was 20.2 nM. The GI50 (NCI-H322M lung) was under 10 nM, the TGI (NCI-H322M lung) was under 10 nM and the GI50 (NCI-H460 NSCLC) was 21.6 nM. The TGI (NCI-H460 NSCLC) was 47.3 nM, the GI50 (RPMI-8226 leukemia) was under 10 nM and the TGI (RPMI-8226 leukemia) was under 10 nM. For the same compound, the GI50 (MALME-3M melanoma) was 19.1 nM, the TGI (MALME-3M melanoma) was 43.8 nM and the GI50 ([…]-0 renal) was under 10 nM. For the same compound, the TGI (786-0 renal) was 16.1 nM, the GI50 (COLO 205 colon) was under 10 nM and the TGI (COLO 205 colon) was under 10 nM. The GI50 (SR leukemia) was 18.1 nM, the TGI (SR leukemia) was 33.3 nM and the GI50 (MCF7 breast) was 14.2 nM. For the same compound, the TGI (MCF7 breast) was 29.1 nM, the GI50 (TK-10 renal) was 19.1 nM and the TGI (TK-10 renal) was 35.7 nM. For the same compound, the GI50 (SK-MEL-5 melanoma) was under 10 nM, the TGI (SK-MEL-5 melanoma) was 20.8 nM and the GI50 (SW-620 colon) was under 10 nM. It also gave a TGI (SW-620 colon) of under 10 nM, a GI50 (OVCAR-8 ovarian) of under 10 nM and a TGI (OVCAR-8 ovarian) of under 10 nM. The GI50 (MDA-MB-435 melanoma) was 13.2 nM, the TGI (MDA-MB-435 melanoma) was 26.1 nM and the GI50 (MDA-MB-231 breast) was 39.4 nM. It also gave a TGI (MDA-MB-231 breast) of 149 nM, a GI50 (OVCAR-3 ovarian) of under 10 nM and a TGI (OVCAR-3 ovarian) of under 10 nM. It also gave a GI50 (HCT-116 colon) of under 10 nM, a TGI (HCT-116 colon) of under 10 nM and a GI50 (IGROV1 ovarian) of 11.2 nM. For the same compound, the TGI (IGROV1 ovarian) was 23.7 nM.

— PubChem BioAssay (NCI)
